# Experiments:
# Format in all cases: cell-based
# IGROV = assay: SRB colorimetric cell growth inhibition assay, IGROV; conditions: Homo sapiens, IGROV; for GI50: GI=growth inhibition, read-out: GI50 IGROV; for CC50: LC=cell killing (cytotoxic effect), read-out: LC50 IGROV; for IC (TGI): TGI=total growth inhibition (cytostatic effect), read-out: TGI IGROV
# Outline: (§1)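 Read-out: sulforhodamine B colorimetry of surviving cell mass after continued exposure of human tumour lines to sample. Values are means ± SD of three wells, expressed as GI, TGI or LC.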
# HT-29 = assay: SRB colorimetric cell growth inhibition assay, HT-29; conditions: Homo sapiens, HT-29, HT-29; for GI50: GI=growth inhibition, read-out: GI50 HT-29; for CC50: LC=cell killing (cytotoxic effect), read-out: LC50 HT-29; for IC (TGI): TGI=total growth inhibition (cytostatic effect), read-out: TGI HT-29
# Outline: as §1
# PANC-1 = assay: SRB colorimetric cell growth inhibition assay, PANC-1; conditions: Homo sapiens, PANC-1, PANC-1; for GI50: GI=growth inhibition, read-out: GI50 PANC-1; for CC50: LC=cell killing (cytotoxic effect), read-out: LC50 PANC-1; for IC (TGI): TGI=total growth inhibition (cytostatic effect), read-out: TGI PANC-1
# Outline: as §1
# SKOV-3 = assay: SRB colorimetric cell growth inhibition assay, SKOV-3; conditions: Homo sapiens; for GI50: SK-OV-3, SKOV-3, GI=growth inhibition, read-out: GI50 SKOV-3; for CC50 / IC (TGI): SK-OV-3, SKOV-3; for CC50: LC=cell killing (cytotoxic effect), read-out: LC50 SKOV-3; for IC (TGI): TGI=total growth inhibition (cytostatic effect), read-out: TGI SKOV-3
# Outline: (§2)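 Growth and viability quantified by sulforhodamine B staining in 96-well microplates. Triplicate wells give mean ± SD; derived endpoints are GI, TGI (cytostatic) and LC (cytotoxic).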
# IGROV-ET = assay: SRB colorimetric cell growth inhibition assay, IGROV-ET (ET-743 resistant); conditions: Homo sapiens, IGROV-ET; for GI50: GI=growth inhibition, read-out: GI50 IGROV-ET; for CC50: LC=cell killing (cytotoxic effect), read-out: LC50 IGROV-ET; for IC (TGI): TGI=total growth inhibition (cytostatic effect), read-out: TGI IGROV-ET
# Outline: as §1
# LoVo-Dox = assay: SRB colorimetric cell growth inhibition assay, LoVo-Dox (MDR); conditions: Homo sapiens, LOVO-DOX; for GI50: GI=growth inhibition, read-out: GI50 LOVO-DOX; for CC50: LC=cell killing (cytotoxic effect), read-out: LC50 LOVO-DOX; for IC (TGI): TGI=total growth inhibition (cytostatic effect), read-out: TGI LOVO-DOX
# Outline: as §1
# SK-MEL-28 = assay: SRB colorimetric cell growth inhibition assay, SK-MEL-28; conditions: Homo sapiens, SK-MEL-28, MEL-28; for GI50: GI=growth inhibition, read-out: GI50 MEL-28; for CC50: LC=cell killing (cytotoxic effect), read-out: LC50 MEL-28; for IC (TGI): TGI=total growth inhibition (cytostatic effect), read-out: TGI MEL-28
# Outline: as §1
# A-549 = assay: SRB colorimetric cell growth inhibition assay, A-549; conditions: Homo sapiens, A549, A-549; for GI50: GI=growth inhibition, read-out: GI50 A-549; for CC50: LC=cell killing (cytotoxic effect), read-out: LC50 A-549; for IC (TGI): TGI=total growth inhibition (cytostatic effect), read-out: TGI A-549
# Outline: as §1
# DU-145 = assay: SRB colorimetric cell growth inhibition assay, DU-145; conditions: Homo sapiens, DU-145, DU-145; for GI50: GI=growth inhibition, read-out: GI50 DU-145; for CC50: LC=cell killing (cytotoxic effect), read-out: LC50 DU-145; for IC (TGI): TGI=total growth inhibition (cytostatic effect), read-out: TGI DU-145
# Outline: as §1
# LoVo = assay: SRB colorimetric cell growth inhibition assay, LoVo; conditions: Homo sapiens, LoVo; for GI50: GI=growth inhibition, read-out: GI50 LOVO; for CC50: LC=cell killing (cytotoxic effect), read-out: LC50 LOVO; for IC (TGI): TGI=total growth inhibition (cytostatic effect), read-out: TGI LOVO
# Outline: as §1
# LNCaP = assay: SRB colorimetric cell growth inhibition assay, LNCaP; conditions: Homo sapiens, LNCaP, LN-caP; for GI50: GI=growth inhibition, read-out: GI50 LN-caP; for CC50: LC=cell killing (cytotoxic effect), read-out: LC50 LN-caP; for IC (TGI): TGI=total growth inhibition (cytostatic effect), read-out: TGI LN-caP
# Outline: as §1
# [1] = SRB colorimetric cell growth inhibition assay, H-MEC-1; conditions: human, H-MEC-1 cells, H-MEC-1; LC=cell killing (cytotoxic effect); read-out: LC50 H-MEC-1
# Outline: as §2
# H-MEC-1 = assay: as above; conditions: Homo sapiens, HMEC-1, H-MEC-1; for GI50: GI=growth inhibition; for IC (TGI): TGI=total growth inhibition (cytostatic effect), read-out: TGI H-MEC-1
# Outline: as §2
# SK-BR-3 = assay: SRB colorimetric cell growth inhibition assay, SK-BR-3; conditions: Homo sapiens, SK-BR-3, SK-BR-3; for GI50: GI=growth inhibition, read-out: GI50 SK-BR-3; for CC50: LC=cell killing (cytotoxic effect), read-out: LC50 SK-BR-3; for IC (TGI): TGI=total growth inhibition (cytostatic effect), read-out: TGI SK-BR-3
# Outline: as §1
# K-562 = assay: SRB colorimetric cell growth inhibition assay, K-562; conditions: Homo sapiens, K562, K-562; for GI50: GI=growth inhibition, read-out: GI50 K-562; for CC50: LC=cell killing (cytotoxic effect), read-out: LC50 K-562; for IC (TGI): TGI=total growth inhibition (cytostatic effect), read-out: TGI K-562
# Outline: as §1
smiles,measurement,setting,value
COc1cc2ccn3c(c(-c4ccc(OC(=O)[C@H](C)NC(=O)OC(C)(C)C)c(OC)c4)c4c5cc(OC)c(OC(=O)[C@H](C)NC(=O)OC(C)(C)C)cc5oc(=O)c43)c2cc1OC [Compound 77],GI50,IGROV,5.92 µM
same,CC50,IGROV,11.7 µM
same,IC (TGI),IGROV,8.84 µM
same,GI50,HT-29,11.7 µM
same,CC50,HT-29,11.7 µM
same,IC (TGI),HT-29,11.7 µM
same,GI50,PANC-1,4.46 µM
same,CC50,PANC-1,11.7 µM
same,IC (TGI),PANC-1,11.7 µM
same,GI50,SKOV-3,7.52 µM
same,CC50,SKOV-3,11.7 µM
same,IC (TGI),SKOV-3,11.7 µM
same,GI50,IGROV-ET,0.258 µM
same,CC50,IGROV-ET,11.7 µM
same,IC (TGI),IGROV-ET,1.17 µM
same,GI50,LoVo-Dox,10.2 µM
same,CC50,LoVo-Dox,11.7 µM
same,IC (TGI),LoVo-Dox,11.7 µM
same,GI50,SK-MEL-28,3.29 µM
same,CC50,SK-MEL-28,11.7 µM
same,IC (TGI),SK-MEL-28,10.1 µM
same,GI50,A-549,6.69 µM
same,CC50,A-549,11.7 µM
same,IC (TGI),A-549,11.7 µM
same,GI50,DU-145,0.8 µM
same,CC50,DU-145,11.7 µM
same,IC (TGI),DU-145,3.96 µM
same,GI50,LoVo,11.7 µM
same,CC50,LoVo,11.7 µM
same,IC (TGI),LoVo,11.7 µM
same,GI50,LNCaP,7.51 µM
same,CC50,LNCaP,11.7 µM
same,IC (TGI),LNCaP,11.7 µM
same,CC50,[1],11.7 µM
same,GI50,H-MEC-1,2.71 µM
same,IC (TGI),H-MEC-1,11.7 µM
same,GI50,SK-BR-3,3.53 µM
same,CC50,SK-BR-3,11.7 µM
same,IC (TGI),SK-BR-3,11.7 µM
same,GI50,K-562,2.13 µM
same,CC50,K-562,11.7 µM
same,IC (TGI),K-562,6.15 µM
COc1cc2c(cc1OC)-c1c(-c3ccc(OC(=O)[C@H](Cc4ccccc4)NC(=O)OC(C)(C)C)c(OC)c3)c3c4cc(OC)c(OC(=O)[C@H](Cc5ccccc5)NC(=O)OC(C)(C)C)cc4oc(=O)c3n1CC2 [Compound 84],GI50,IGROV,2.41 µM
same,CC50,IGROV,9.9 µM
same,IC (TGI),IGROV,6.28 µM
same,GI50,HT-29,2.34 µM
same,CC50,HT-29,9.9 µM
same,IC (TGI),HT-29,9.9 µM
same,GI50,PANC-1,0.501 µM
same,CC50,PANC-1,9.9 µM
same,IC (TGI),PANC-1,5.47 µM
same,GI50,SKOV-3,4.58 µM
same,CC50,SKOV-3,9.9 µM
same,IC (TGI),SKOV-3,9.9 µM
same,GI50,IGROV-ET,4.26 µM
same,CC50,IGROV-ET,9.9 µM
same,IC (TGI),IGROV-ET,8.25 µM
same,GI50,LoVo-Dox,9.9 µM
same,CC50,LoVo-Dox,9.9 µM
same,IC (TGI),LoVo-Dox,9.9 µM
same,GI50,SK-MEL-28,2.07 µM
same,CC50,SK-MEL-28,7.21 µM
same,IC (TGI),SK-MEL-28,3.86 µM
same,GI50,A-549,2.66 µM
same,CC50,A-549,9.03 µM
same,IC (TGI),A-549,4.91 µM
same,GI50,DU-145,3.41 µM
same,CC50,DU-145,9.9 µM
same,IC (TGI),DU-145,8.36 µM
same,GI50,LoVo,4.48 µM
same,CC50,LoVo,9.9 µM
same,IC (TGI),LoVo,9.9 µM
same,GI50,LNCaP,0.71 µM
same,CC50,LNCaP,5.21 µM
same,IC (TGI),LNCaP,2.01 µM
same,CC50,[1],5.96 µM
same,GI50,H-MEC-1,0.682 µM
same,IC (TGI),H-MEC-1,1.86 µM
same,GI50,SK-BR-3,0.46 µM
same,CC50,SK-BR-3,9.9 µM
same,IC (TGI),SK-BR-3,0.95 µM
same,GI50,K-562,0.731 µM
same,CC50,K-562,9.9 µM
same,IC (TGI),K-562,3.3 µM

# Reference: US7396837B2, “Antitumoral analogs of lamellarins” (Pharma Mar, S.A.U., priority 2002, dated 2008)
